Oligonucleotides are written 5' to 3', each unit as a sugar letter and its base; * is a phosphorothioate linkage, no mark a phosphodiester; rarer units and linkages stand in square brackets, end groups in braces. Plain capitals give the bases only. d = 2'-deoxy (DNA); r = 2'-OH (RNA)
Further: test concentration or dose not given here.

One data set addresses P2rx2 (rat). Put plainly: reporter assay of Huesken 2005. Particulars: siRNA. (A reporter such as luciferase makes a cellular process visible.)
With “sense rCrGrUrGrCrArGrArArArArGrCrUrArCrCrArGdTdT / antisense rCrUrGrGrUrArGrCrUrUrUrUrCrUrGrCrArCrGdAdT”, the normalised inhibition (eCFP-eYFP dual reporter) worked out at 80.5%. The same measure, in the same setting: next, “sense rArGrGrGrCrArCrUrGrUrGrUrArCrCrCrUrArUdTdT / antisense rArUrArGrGrGrUrArCrArCrArGrUrGrCrCrCrUdGdT”: 55%; “sense rCrArGrUrGrUrArGrUrCrArGrCrArUrCrArUrCdTdT / antisense rGrArUrGrArUrGrCrUrGrArCrUrArCrArCrUrGdCdC”: 78.4%; “sense rArArArUrUrUrCrArCrCrArUrCrCrUrCrArUrCdTdT / antisense rGrArUrGrArGrGrArUrGrGrUrGrArArArUrUrUdGdG”: 23.6%. On the same count and under the same terms, next, “sense rGrCrCrArCrCrCrArGrCrCrCrUrCrCrArUrCrAdTdT / antisense rUrGrArUrGrGrArGrGrGrCrUrGrGrGrUrGrGrCdTdG”: 60.8%; “sense rGrCrUrCrUrArCrCrUrGrCrCrArUrUrCrArGrAdTdT / antisense rUrCrUrGrArArUrGrGrCrArGrGrUrArGrArGrCdTdG”: 79.4%; “sense rGrGrUrGrGrUrGrGrArCrArCrArCrUrUrGrGrCdTdT / antisense rGrCrCrArArGrUrGrUrGrUrCrCrArCrCrArCrCdTdG”: 52.2%. In the case of “sense rArArArGrUrCrArArGrGrGrGrArUrCrArCrCrAdTdT / antisense rUrGrGrUrGrArUrCrCrCrCrUrUrGrArCrUrUrUdGdG”, the normalised inhibition (eCFP-eYFP dual reporter) was found to be 66.2%. Same read-out and setting: to “sense rArCrUrUrCrUrGrArCrArArCrCrArUrUrUrUrCdTdT / antisense rGrArArArArUrGrGrUrUrGrUrCrArGrArArGrUdTdC” belongs 33.5%; to “sense rCrCrArArGrArCrCrUrGrCrGrArGrGrUrGrUrCdTdT / antisense rGrArCrArCrCrUrCrGrCrArGrGrUrCrUrUrGrGdAdG”, 68.7%; to “sense rGrCrUrArCrCrArGrGrArCrArGrCrGrArGrArCdTdT / antisense rGrUrCrUrCrGrCrUrGrUrCrCrUrGrGrUrArGrCdTdT”, 60.5%. Same read-out and setting: next, “sense rGrArUrCrArGrGrArCrUrCrUrGrArCrCrCrArUdTdT / antisense rArUrGrGrGrUrCrArGrArGrUrCrCrUrGrArUrCdAdA”: 81.3%; “sense rGrArCrCrCrUrGrCrCrUrCrCrUrCrArGrGrCrUdTdT / antisense rArGrCrCrUrGrArGrGrArGrGrCrArGrGrGrUrCdAdT”: 61.9%; “sense rUrUrGrCrArArGrCrCrArGrArArGrArGrUrGrAdTdT / antisense rUrCrArCrUrCrUrUrCrUrGrGrCrUrUrGrCrArAdTdG”: 72.8%. On the same count and under the same terms, next, “sense rCrUrGrGrArArCrUrGrUrGrArCrCrUrGrGrArCdTdT / antisense rGrUrCrCrArGrGrUrCrArCrArGrUrUrCrCrArGdTdT”: 70.3%; “sense rArArGrCrCrUrArUrGrGrGrArUrUrCrGrArArUdTdT / antisense rArUrUrCrGrArArUrCrCrCrArUrArGrGrCrUrUdTdG”: 76%.

Another data set concerns the target UBE2T. The data set is described as follows: reporter assay of Huesken 2005. Particulars: siRNA.
As for “sense rArUrUrGrCrCrArCrCrArArArArGrGrUrGrCrUdTdT / antisense rArGrCrArCrCrUrUrUrUrGrGrUrGrGrCrArArUdTdT”, the normalised inhibition (eCFP-eYFP dual reporter) was determined as 43.8%. In the case of “sense rCrCrCrUrCrArArCrArUrCrGrCrArArCrUrGrUdTdT / antisense rArCrArGrUrUrGrCrGrArUrGrUrUrGrArGrGrGdAdT”, the normalised inhibition (eCFP-eYFP dual reporter) turned out to be 106%. For “sense rGrGrArArGrGrArUrUrUrGrUrCrUrGrGrArUrGdTdT / antisense rCrArUrCrCrArGrArCrArArArUrCrCrUrUrCrCdAdG”, the normalised inhibition (eCFP-eYFP dual reporter) was found to be 96.1%.

Turning to “sense rGrArUrUrUrGrUrCrUrGrGrArUrGrUrUrCrUrCdTdT / antisense rGrArGrArArCrArUrCrCrArGrArCrArArArUrCdCdT”, the normalised inhibition (eCFP-eYFP dual reporter) was determined as 75%. Consider “sense rArGrGrUrArCrCrCrArUrUrUrGrArArCrCrUrCdTdT / antisense rGrArGrGrUrUrCrArArArUrGrGrGrUrArCrCrUdCdT”, for which the normalised inhibition (eCFP-eYFP dual reporter) is 63.1%.

With “sense rUrGrArGrArGrGrUrArCrCrCrArUrUrUrGrArAdTdT / antisense rUrUrCrArArArUrGrGrGrUrArCrCrUrCrUrCrAdGdG”, the normalised inhibition (eCFP-eYFP dual reporter) worked out at 87.4%.

As for “sense rCrCrUrGrArUrGrArCrCrCrGrCrUrCrArUrGrGdTdT / antisense rCrCrArUrGrArGrCrGrGrGrUrCrArUrCrArGrGdGdT”, the normalised inhibition (eCFP-eYFP dual reporter) was 83.5%. On the same count and under the same terms, next, “sense rUrCrArArCrArUrCrGrCrArArCrUrGrUrGrUrUdTdT / antisense rArArCrArCrArGrUrUrGrCrGrArUrGrUrUrGrAdGdG”: 103%; “sense rArCrArCrArCrCrUrUrArUrGrArGrArArArGrGdTdT / antisense rCrCrUrUrUrCrUrCrArUrArArGrGrUrGrUrGrUdTdG”: 74.7%. The same measure, in the same setting: next, “sense rCrCrArArArUrGrGrArUrGrArCrCrUrGrCrGrAdTdT / antisense rUrCrGrCrArGrGrUrCrArUrCrCrArUrUrUrGrGdTdC”: 95.3%; “sense rArGrUrArGrGrCrArUrArGrArArArArGrArArAdTdT / antisense rUrUrUrCrUrUrUrUrCrUrArUrGrCrCrUrArCrUdAdG”: 102%.

Consider “sense rCrUrGrCrUrCrArUrGrUrCrArGrArArCrCrCrAdTdT / antisense rUrGrGrGrUrUrCrUrGrArCrArUrGrArGrCrArGdCdT”, for which the normalised inhibition (eCFP-eYFP dual reporter) was found to be 104%.

For “sense rGrCrGrArGrCrUrCrArArArUrArUrUrArGrGrUdTdT / antisense rArCrCrUrArArUrArUrUrUrGrArGrCrUrCrGrCdAdG”, the normalised inhibition (eCFP-eYFP dual reporter) was 71.6%. As for “sense rUrCrUrGrGrArUrGrUrUrCrUrCrArArArUrUrGdTdT / antisense rCrArArUrUrUrGrArGrArArCrArUrCrCrArGrAdCdA”, the normalised inhibition (eCFP-eYFP dual reporter) amounted to 80.8%. Still for that read-out and setting: to “sense rGrCrUrUrGrArUrArArUrCrUrArCrCrArGrArGdTdT / antisense rCrUrCrUrGrGrUrArGrArUrUrArUrCrArArGrCdAdT” belongs 101%. Still for that read-out and setting: to “sense rUrCrArArCrArCrArGrArArArArGrGrArArGrGdTdT / antisense rCrCrUrUrCrCrUrUrUrUrCrUrGrUrGrUrUrGrAdGdT” belongs 65.5%; to “sense rGrUrUrArUrCrArUrUrCrCrUrGrArGrArGrGrUdTdT / antisense rArCrCrUrCrUrCrArGrGrArArUrGrArUrArArCdTdT”, 75.4%.

Consider “sense rCrCrArArArArGrGrUrGrCrUrUrGrGrArGrArCdTdT / antisense rGrUrCrUrCrCrArArGrCrArCrCrUrUrUrUrGrGdTdG”, for which the normalised inhibition (eCFP-eYFP dual reporter) was determined as 84.9%. Still for that read-out and setting: next, “sense rArGrArArUrGrCrCrArGrArCrArGrUrGrGrArCdTdT / antisense rGrUrCrCrArCrUrGrUrCrUrGrGrCrArUrUrCrUdTdG”: 95%; “sense rArGrCrUrGrCrUrCrArUrGrUrCrArGrArArCrCdTdT / antisense rGrGrUrUrCrUrGrArCrArUrGrArGrCrArGrCrUdGdA”: 79.4%; “sense rUrUrGrArCrCrUrCrUrArUrUrCrArGrCrUrGrCdTdT / antisense rGrCrArGrCrUrGrArArUrArGrArGrGrUrCrArAdCdA”: 49.2%.

On to “sense rCrArGrArGrUrArCrArCrArArCrUrCrArArCrAdTdT / antisense rUrGrUrUrGrArGrUrUrGrUrGrUrArCrUrCrUrGdGdA”, for which the normalised inhibition (eCFP-eYFP dual reporter) was 83%. Still for that read-out and setting: next, “sense rGrCrUrGrArUrGrArGrGrArArGrArGrArUrGrCdTdT / antisense rGrCrArUrCrUrCrUrUrCrCrUrCrArUrCrArGrCdCdT”: 73.8%. For “sense rGrUrGrArCrUrCrCrArGrArGrUrArCrArCrArAdTdT / antisense rUrUrGrUrGrUrArCrUrCrUrGrGrArGrUrCrArCdCdA”, the normalised inhibition (eCFP-eYFP dual reporter) is 108%.

Consider “sense rCrUrCrArArArUrUrGrCrCrArCrCrArArArArGdTdT / antisense rCrUrUrUrUrGrGrUrGrGrCrArArUrUrUrGrArGdAdA”, for which the normalised inhibition (eCFP-eYFP dual reporter) stood at 68.5%. The same measure, in the same setting: next, “sense rGrCrArArCrUrGrUrGrUrUrGrArCrCrUrCrUrAdTdT / antisense rUrArGrArGrGrUrCrArArCrArCrArGrUrUrGrCdGdA”: 114%; “sense rUrGrArGrGrArArGrArGrArUrGrCrUrUrGrArUdTdT / antisense rArUrCrArArGrCrArUrCrUrCrUrUrCrCrUrCrAdTdC”: 91.6%. Still for that read-out and setting: next, “sense rUrCrCrGrArUrUrUrCrUrCrArCrUrCrCrArArUdTdT / antisense rArUrUrGrGrArGrUrGrArGrArArArUrCrGrGrAdTdC”: 109%; “sense rCrUrUrCrCrUrCrArArGrArArUrGrCrCrArGrAdTdT / antisense rUrCrUrGrGrCrArUrUrCrUrUrGrArGrGrArArGdGdC”: 76%; “sense rArArGrGrUrGrCrUrUrGrGrArGrArCrCrArUrCdTdT / antisense rGrArUrGrGrUrCrUrCrCrArArGrCrArCrCrUrUdTdT”: 60.5%. Regarding “sense rCrGrArUrUrUrCrUrCrArCrUrCrCrArArUrUrUdTdT / antisense rArArArUrUrGrGrArGrUrGrArGrArArArUrCrGdGdA”, the normalised inhibition (eCFP-eYFP dual reporter) stood at 107%.

On to “sense rArCrArUrArUrCrCrUrCrArGrArArUrUrUrArAdTdT / antisense rUrUrArArArUrUrCrUrGrArGrGrArUrArUrGrUdCdA”, for which the normalised inhibition (eCFP-eYFP dual reporter) turned out to be 114%. Same read-out and setting: to “sense rArArGrArGrArUrGrCrUrUrGrArUrArArUrCrUdTdT / antisense rArGrArUrUrArUrCrArArGrCrArUrCrUrCrUrUdCdC” belongs 99.4%.

(Values after the OligoGym collection.)
